From patent publication US5484940A, “Substituted 3-indolyl-5-pyrazolone compounds” (priority 1994, dated 1996)

Assays:
human cortical neurons = assay: Inhibition of toxicity of β-amyloid peptide to human neuronal cells (alamarBlue); assay type: cell-based; conditions: 50 μM β-amyloid peptide, 2-3 days; on average where more than one duplicate experiment; compound concentration not stated
Method: (§1) The purpose of this test is to determine the effect of 3-indolyl-5-pyrazolone compounds on the toxicity of β-amyloid peptide to neuronal cells.
Primary Human Cortical Cell Culture
Primary human cortical cultures were prepared using a modification of the procedure described by Seubert, et al.^21 Following filtration through Nitex nylon screens, cortical tissue was resuspended in a trypsin/EDTA solution (0.05% trypsin+0.53 mM EDTA in HBSS; GIBCO Laboratories, Grand Island, N.Y., USA) and kept at 37° C. for 20 minutes. The trypsin was then inactivated by resuspending the cells in serum-containing medium (MEM/FBS: Modified Eagles' Medium (MEM) containing 1% glucose, 1 mM sodium pyruvate, 1 mM glutamine, and supplemented with 10% fetal bovine serum (GIBCO). Cells were then pelleted by centrifugation and resuspended in a chemically-defined medium (MEM/B27: MEM containing B27 supplement in place of FBS; GIBCO). Polyethyleneimine (PEI; Sigma Chemical Company, St. Louis, Mo., USA)-coated 6.4 mm (96-well) dishes were rinsed once with MEM/FBS, and then seeded at 0.75 to 1.25×10^5 cells per well in 0.1 mL MEM/B27. Cultures were maintained in a H2 O-saturated incubator with an atmosphere of 95% air/5% CO 2 at 37° C. The culture medium was exchanged twice weekly. Cell viability was visually assessed by phase contrast microscopy and quantified by measuring the reduction of alamarBlue™ (Alamar Biosciences, Inc., Sacramento, Calif., USA).
(§2) β-amyloid peptide stock solutions were prepared as 1 mM stocks in sterile, doubly distilled water immediately prior to addition to cultures. Rat cortical neurons were exposed to β-amyloid peptide by removing the culture medium and replacing it with DMEM/N2 (GIBCO Laboratories,Grand Island, N.Y., USA) containing 10 to 20 μM β-amyloid peptide. Human cortical neurons were exposed to test compound plus β-amyloid peptide by removing the culture medium and replacing it with MEM containing 50 μM β-amyloid peptide. Cultures were maintained for 2-3 days before neuronal survival was quantified using alamarBlue™.
(§3) The alamarBlue™ assay incorporates a fluorometric/colorimetric metabolic indicator (Alamar Biosciences, Inc. Sacramento, Calif., USA). Viable cells convert alamarBlue™ from an oxidized (non-fluorescent, blue) form to a reduced (fluorescent, red) form. Assays were preformed by replacing the culture media with a 10% alamarBlue™ solution in DMEM (rat cortical cultures) or MEM (human cortical cultures).

rat cortical neurons = assay: Inhibition of toxicity of β-amyloid peptide to rat neuronal cells (alamarBlue); assay type: cell-based; conditions: 10 to 20 μM β-amyloid peptide, 2-3 days; on average where more than one duplicate experiment; compound concentration not stated
Method: as §1
Primary rat cortical cultures were established from 18 day rat fetuses. Cortical tissue was dissociated by incubation in a trypsin/EDTA solution (0.05% trypsin+0.53 mM EDTA in HBSS; GIBCO Laboratories, Grand Island, N.Y., USA) for 20 minutes at 37° C. The trypsin was then inactivated by resuspending the cells in serum-containing medium (DMEM/FBS): Dulbecco's Modified Eagles' Medium (DMEM) containing 4.5 g/L glucose, 1 mM sodium pyruvate, 1 mM glutamine, 100 Units/mL penicillin, 100 μg/mL streptomycin, and supplemented with 10% heat-inactivated fetal bovine serum (GIBCO Laboratories, Grand Island, N.Y., USA). Cells were then pelleted by centrifugation and resuspended in a chemically-defined medium (DMEM/B27: DMEM containing B27 supplement; GIBCO Laboratories, Grand Island, N.Y., USA) in place of FBS. Polyethyleneimine (PEI; Sigma Chemical Company, St. Louis, Mo., USA)-coated 6.4 mm (96-well) dishes were timed once with DMEM/FBS, and then seeded at 0.75 to 1.25×10^5 cells per well in 0.1 mL DMEM/B27. Cultures were maintained in a H2 O-saturated incubator with an atmosphere of 90% air/10% CO2 at 37° C. Cell viability was visually assessed by phase contrast microscopy and quantified by measuring the reduction of alamarBlue™ (Alamar biosciences, Inc., Sacramento, Calif., USA) as described below. Serum replacement with B27 supplement yields nearly pure neuronal cultures as judged by immunocytochemistry for glial fibrillary acidic protein and neuron-specific enolase (Brewer, et al.^20)
as §2, §3

293 751 SWE cells = assay: Cytotoxicity (MTT) in 293 751 SWE cells; assay type: cell-based, human; conditions: concentration not given
Method: (§4) This screening assay employed cells (K293=human kidney cell line) which were stably transfected with the gene for amyloid precursor protein 751 (APP751) containing the double mutation Lys651 Met652 to Asn651 Leu652 (APP751 numbering) in the manner described in International Patent Application Publication No. 94/10569^1 and Citron et al.^16. This mutation is commonly called the Swedish mutation and the cells, designated as "293 751 SWE", were plated in Coming 96-well plates at 1.5-2.5×10^4 cells per well in Dulbecco's minimal essential media plus 10% fetal bovine serum. Cell number is important in order to achieve β-amyloid ELISA results within the linear range of the assay (~0.2 to 2.5 ng per mL).
Cytotoxic effects of the compounds were measured by a modification of the method of Hansen, et al.^17. To the cells remaining in the tissue culture plate was added 25 μL of a 3,(4,5-dimethylthiazol-2-yl)2,5-diphenyltetrazolium bromide (MTT) stock solution (5 mg/mL) to a final concentration of 1 mg/mL. Cells were incubated at 37° C. for one hour, and cellular activity was stopped by the addition of an equal volume of MTT lysis buffer (20% w/v sodium dodecylsulfate in 50% dimethylformamide, pH 4.7). Complete extraction was achieved by overnight shaking at room temperature. The difference in the OD562nm and the OD650nm was measured in a Molecular Device's UVmax microplate reader as an indicator of the cellular viability.

[1] = test system: β-amyloid peptide production; assay: Cellular screen for inhibitors of β-amyloid production (ELISA, 293 751 SWE cells); assay type: cell-based, human; conditions: 2 h pretreatment + 2 h, normalized for cytotoxicity (MTT), concentration not given
Method: as §4
Following overnight incubation at 37° C. in an incubator equilibrated with 10% carbon dioxide, media were removed and replaced with 200 μL of a substituted 3-indolyl-5-pyrazolone (drug) containing media per well for a two hour pretreatment period and cells were incubated as above.
At the end of the pretreatment period, the media were again removed and replaced with fresh drag containing media as above and cells were incubated for an additional two hours. After treatment, plates were centrifuged in a Beckman GPR at 1200 rpm for five minutes at room temperature to pellet cellular debris from the conditioned media. From each well, 100 μL of conditioned media or appropriate dilutions thereof were transferred into an ELISA plate precoated with antibody 266 against amino acids 13-28 of β-amyloid peptide as described in International Patent Application Publication No. 94/10569^1 and stored at 4° C. overnight. An ELISA assay employing labelled antibody 6C6 against amino acids 1-16 of β-amyloid peptide was run the next day to measure the amount of β-amyloid peptide produced.
The results of the β-amyloid peptide ELISA were fit to a standard curve and expressed as ng/mL β-amyloid peptide. […] All results are the mean and standard deviation of at least six replicate assays.

SMILES	inhibition of the toxicity of β-amyloid peptide to human neuronal cells (human cortical neurons)	inhibition of the toxicity of β-amyloid peptide to rat neuronal cells (rat cortical neurons)	cytotoxic effect on the 293 751 SWE cells (293 751 SWE cells)	reduction of β-amyloid peptide production as compared to control [1]
O=C1CC(Cc2cn(C(=O)c3ccc(Cl)cc3)c3ccccc23)=NN1 [A, 3-[1-(4-chlorobenzoyl)-3-indolylmethyl]-5-pyrazolone]	at least 25%	at least 10%	–	–
O=C1CC(CCc2c[nH]c3ccccc23)=NN1C1CCCCC1 [D, 3-[3-indolylethyl]-1-cyclohexyl-5-pyrazolone]	at least 25%	< 10%	–	–
COc1ccc2c(c1)c(CC1=NN(c3ccccc3C)C(=O)C1)c(C)n2C(=O)c1ccc(Cl)cc1 [E]	at least 25%	at least 10%	–	–
COc1ccc2c(c1)c(CC1=NN(c3ccccc3)C(=O)C1)c(C)n2C(=O)c1ccc(Cl)cc1 [Example 8, 3-[1-(4-chlorobenzoyl)-5-methoxy-2-methyl-3-indolylmethyl]-1-phenyl-5-pyrazolone]	at least 25%	< 10%	did not have a significant cytotoxic effect	at least 20%
COc1ccc2c(c1)c(CC1=NNC(=O)C1)c(C)n2C(=O)c1ccc(Cl)cc1 [Example 15, 3-[1-(4-chlorobenzoyl)-5-methoxy-2-methyl-3-indolylmethyl]-5-pyrazolone]	at least 25%	< 10%	–	< 20%
O=C1CC(Cc2c[nH]c3ccccc23)=NN1C1CCCCC1 [Example 18, 3-(3-indolylmethyl)-1-cyclohexyl-5-pyrazolone]	at least 25%	< 10%	–	–
COc1ccc(N2N=C(Cc3c(C)n(C(=O)c4ccc(Cl)cc4)c4ccc(OC)cc34)CC2=O)cc1 [Example 23, 3-[1-(4-chlorobenzoyl)-5-methoxy-2-methyl-3-indolylmethyl]-1-(4-methoxyphenyl)-5-pyrazolone]	at least 25%	< 10%	did not have a significant cytotoxic effect	at least 20%
COc1cccc(N2N=C(Cc3c(C)n(C(=O)c4ccc(Cl)cc4)c4ccc(OC)cc34)CC2=O)c1 [Example 24, 3-[1-(4-chlorobenzoyl)-5-methoxy-2-methyl-3-indolylmethyl]-1-(3-methoxyphenyl)-5-pyrazolone]	at least 25%	at least 10%	did not have a significant cytotoxic effect	at least 20%
COc1ccc2c(c1)c(CC1=NN(c3cccc(Cl)c3)C(=O)C1)c(C)n2C(=O)c1ccc(Cl)cc1 [Example 26, 3-[1-(4-chlorobenzoyl)-5-methoxy-2-methyl-3-indolylmethyl]-1-(3-chlorophenyl)-5-pyrazolone]	at least 25%	at least 10%	did not have a significant cytotoxic effect	at least 20%
COc1ccc2c(c1)c(CC1=NN(c3cc(Cl)cc(Cl)c3)C(=O)C1)c(C)n2C(=O)c1ccc(Cl)cc1 [Example 27, 3-[1-(4-chlorobenzoyl)-5-methoxy-2-methyl-3-indolylmethyl]-1-(3,5-dichlorophenyl)-5-pyrazolone]	at least 25%	at least 10%	did not have a significant cytotoxic effect	at least 20%
COc1ccc2c(c1)c(CC1=NN(c3cccc([N+](=O)[O-])c3)C(=O)C1)c(C)n2C(=O)c1ccc(Cl)cc1 [Example 30, 3-[1-(4-chlorobenzoyl)-5-methoxy-2-methyl-3-indolylmethyl]-1-(3-nitrophenyl)-5-pyrazolone]	at least 25%	< 10%	did not have a significant cytotoxic effect	at least 20%
COc1ccc2c(c1)c(CC1=NN(c3cccc(C)c3)C(=O)C1)c(C)n2C(=O)c1ccc(Cl)cc1 [Example 31, 3-[1-(4-chlorobenzoyl)-5-methoxy-2-methyl-3-indolylmethyl]-1-(3-methylphenyl)-5-pyrazolone]	at least 25%	–	did not have a significant cytotoxic effect	at least 20%
COc1ccc2c(c1)c(CC1=NN(c3cccc(F)c3)C(=O)C1)c(C)n2C(=O)c1ccc(Cl)cc1 [Example 32, 3-[1-(4-chlorobenzoyl)-5-methoxy-2-methyl-3-indolylmethyl]-1-(3-fluorophenyl)-5-pyrazolone]	at least 25%	–	did not have a significant cytotoxic effect	at least 20%
